Patent US9247759B2, “Identification of human T2R receptors that respond to bitter compounds that elicit the bitter taste in compositions, and the use thereof in assays to identify compounds that inhibit (block) bitter taste in compositions and use thereof” (SENOMYX, INC., priority 2007, dated 2016)

Tests used:
hT2R63 = assay: hT2R panel inhibition, transient HEK293 G16g44, agonist Caffeine 1 mM or Andrographolide 100 μM; assay type: cell-based, human; conditions: compound at 25 μM; receptor activated to EC80 with the corresponding agonist
Method in brief: (§1)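 Transfect one hT2R per well set; stimulate with agonist at EC80; add test compound; record reduction of functional response as inhibition.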

hT2R14 = hT2R14 (Homo sapiens (Human), UniProt Q9NYV8); assay: hT2R panel inhibition, transient HEK293 G16g44, agonist Aristolochic Acid 2 μM; assay type: cell-based; conditions: HEK293, compound at 25 μM; receptor activated to EC80 with the corresponding agonist; read-out: screening result against bitter receptor 14
Method in brief: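 Each hT2R was transiently transfected into HEK293 cells stably expressing G16g44 and assayed functionally for inhibition of agonist response. Agonists were applied at EC80: andrographolide at 0.5 mM for hT2R8 and aristolochic acid at 2 μM for hT2R14.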

hT2R64 = hT2R64 (Homo sapiens (Human), UniProt P59538); assay: hT2R panel inhibition, transient HEK293 G16g44, agonist Aristolochic Acid 1 μM; assay type: cell-based; conditions: HEK293, compound at 25 μM; receptor activated to EC80 with the corresponding agonist; read-out: screening result against bitter receptor 64
Method in brief: as §1

hT2R16 = hT2R16 (Homo sapiens (Human), UniProt Q9NYV7); assay: hT2R panel inhibition, transient HEK293 G16g44, agonist Salicin 1 mM; assay type: cell-based; conditions: HEK293, compound at 25 μM; receptor activated to EC80 with the corresponding agonist; read-out: screening result against bitter receptor 16
Method in brief: as §1

hT2R61 = hT2R61 (Homo sapiens (Human), UniProt P59537); assay: hT2R panel inhibition, transient HEK293 G16g44, agonist Aristolochic Acid 25 nM; assay type: cell-based; conditions: HEK293, compound at 25 μM; receptor activated to EC80 with the corresponding agonist; read-out: screening result against bitter receptor 61
Method in brief: as §1

hT2R67 = assay: hT2R panel inhibition, transient HEK293 G16g44, agonist Andrographolide 5 μM; assay type: cell-based, human; conditions: compound at 25 μM; receptor activated to EC80 with the corresponding agonist
Method in brief: as §1

hT2R65 = assay: hT2R panel inhibition, transient HEK293 G16g44, agonist Oleuropein 1 mM; assay type: cell-based, human; conditions: compound at 25 μM; receptor activated to EC80 with the corresponding agonist
Method in brief: as §1

hT2R3 = hT2R3 (Homo sapiens (Human), UniProt Q9NYW6); assay: hT2R panel inhibition, transient HEK293 G16g44, agonist Chloroquine pH6.5 50 μM; assay type: cell-based; conditions: HEK293, compound at 25 μM; receptor activated to EC80 with the corresponding agonist; read-out: screening result against bitter receptor 3
Method in brief: as §1

hT2R13 = hT2R13 (Homo sapiens (Human), UniProt Q9NYV9); assay: hT2R panel inhibition, transient HEK293 G16g44, agonist Oxyphenonium 1 mM; assay type: cell-based; conditions: HEK293, compound at 25 μM; receptor activated to EC80 with the corresponding agonist; read-out: screening result against bitter receptor 13
Experimental: Specifically, in order to evaluate the inhibitory selectivity of the Compound C compound, this compound was tested against 22 human T2Rs which were deorphaned by Senomyx. These receptors and the bitter ligands that activate these human T2Rs are reported in earlier patent applications which are incorporated by reference herein. These 22 human T2Rs are hT2R1, 3, 4, 5, 7, 8, 9, 10, 13, 14, 16, 44, 51, 54, 55, 61, 63, 64, 65, 67, 71 and 75. The amino acid and nucleic acid sequences of all of these T2Rs may be found in these earlier patent applications. These human T2Rs were each individually transiently transfected into HEK293 cells that stably express the promiscuous G protein G16g44 and functional assays were effected using these receptors as disclosed in these same patent applications. […] The ligands were used at EC80 concentration levels. The list of bitter ligands utilized and the tested ligand concentrations are contained in Table 5 of this example.
Relating to the foregoing, FIG. 5 contains experimental results wherein Compound C was tested with different agonist compounds. The inhibition activity is represented by the reduction of receptor activity in the presence of Compound C. […] These 13 hT2Rs are hT2R3, 7, 10, 14, 16, 44, 51, 55, 61, 63, 64, 65, and 71.

hT2R71 = hT2R71 (Homo sapiens (Human), UniProt P59536); assay: hT2R panel inhibition, transient HEK293 G16g44, agonist Picric Acid 10 μM; assay type: cell-based; conditions: HEK293, compound at 25 μM; receptor activated to EC80 with the corresponding agonist; read-out: screening result against bitter receptor 71
Method in brief: as §1

hT2R55 = assay: hT2R panel inhibition, transient HEK293 G16g44, agonist Cinchonine 150 μM; assay type: cell-based, human; conditions: compound at 25 μM; receptor activated to EC80 with the corresponding agonist
Method in brief: as §1

hT2R44 = assay: hT2R panel inhibition, transient HEK293 G16g44, agonist Denatonium 0.5 μM; assay type: cell-based, human; conditions: compound at 25 μM; receptor activated to EC80 with the corresponding agonist
Method in brief: as §1

hT2R4 = hT2R4 (Homo sapiens (Human), UniProt Q9NYW5); assay: hT2R panel inhibition, transient HEK293 G16g44, agonist Chloroquine pH6.5 5 mM; assay type: cell-based; conditions: HEK293, compound at 25 μM; receptor activated to EC80 with the corresponding agonist; class symbols; read-out: screening result against bitter receptor 4
Method in brief: as §1

hT2R51 = hT2R51 (Homo sapiens (Human), UniProt P59533); assay: hT2R panel inhibition, transient HEK293 G16g44, agonist Prop 2.5 μM; assay type: cell-based; conditions: HEK293, compound at 25 μM; receptor activated to EC80 with the corresponding agonist; read-out: screening result against bitter receptor 51
Method in brief: as §1

hT2R7 = hT2R7 (Homo sapiens (Human), UniProt Q9NYW3); assay: hT2R panel inhibition, transient HEK293 G16g44, agonist Chloroquine pH6.5 10 mM; assay type: cell-based; conditions: HEK293, compound at 25 μM; receptor activated to EC80 with the corresponding agonist; read-out: screening result against bitter receptor 7
Method in brief: as §1

hT2R75 = hT2R75 (Homo sapiens (Human), UniProt P59540); assay: hT2R panel inhibition, transient HEK293 G16g44, agonist Strychnine 1 μM; assay type: cell-based; conditions: HEK293, read-out: screening result against bitter receptor 75, compound at 25 μM; receptor activated to EC80 with the corresponding agonist
hT2R10 = hT2R10 (Homo sapiens (Human), UniProt Q9NYW0); assay: hT2R panel inhibition, transient HEK293 G16g44, agonist Strychnine 50 μM; assay type: cell-based; conditions: HEK293, read-out: screening result against bitter receptor 10, compound at 25 μM; receptor activated to EC80 with the corresponding agonist
hT2R54 = assay: hT2R panel inhibition, transient HEK293 G16g44, agonist Ranitidine 5 mM; assay type: cell-based, human; conditions: compound at 25 μM; receptor activated to EC80 with the corresponding agonist
Method in brief: as §1

hT2R5 = hT2R5 (Homo sapiens (Human), UniProt Q9NYW4); assay: hT2R panel inhibition, transient HEK293 G16g44, agonist Picoline 10 mM; assay type: cell-based; conditions: HEK293, compound at 25 μM; receptor activated to EC80 with the corresponding agonist; read-out: screening result against bitter receptor 5
Method in brief: as §1

Sequence of hT2R16 (Q9NYV7 whole entry): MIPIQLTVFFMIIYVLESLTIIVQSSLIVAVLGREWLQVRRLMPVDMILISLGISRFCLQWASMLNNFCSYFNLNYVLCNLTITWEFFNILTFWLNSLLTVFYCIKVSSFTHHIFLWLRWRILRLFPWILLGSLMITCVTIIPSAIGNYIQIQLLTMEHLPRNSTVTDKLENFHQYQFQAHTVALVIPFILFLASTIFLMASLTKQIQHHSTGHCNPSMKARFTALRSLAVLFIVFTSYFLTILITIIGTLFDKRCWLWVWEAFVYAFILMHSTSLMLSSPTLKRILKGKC
Sequence of hT2R3 (Q9NYW6 whole entry): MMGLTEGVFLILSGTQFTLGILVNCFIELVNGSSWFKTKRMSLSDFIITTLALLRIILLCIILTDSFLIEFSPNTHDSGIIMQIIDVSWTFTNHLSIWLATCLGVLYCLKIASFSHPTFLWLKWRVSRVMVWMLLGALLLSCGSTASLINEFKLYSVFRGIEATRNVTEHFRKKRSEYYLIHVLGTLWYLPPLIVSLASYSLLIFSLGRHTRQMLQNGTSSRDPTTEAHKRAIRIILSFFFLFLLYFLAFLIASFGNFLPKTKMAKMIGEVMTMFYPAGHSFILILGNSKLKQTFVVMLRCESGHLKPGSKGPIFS
Sequence of hT2R64 (P59538 whole entry): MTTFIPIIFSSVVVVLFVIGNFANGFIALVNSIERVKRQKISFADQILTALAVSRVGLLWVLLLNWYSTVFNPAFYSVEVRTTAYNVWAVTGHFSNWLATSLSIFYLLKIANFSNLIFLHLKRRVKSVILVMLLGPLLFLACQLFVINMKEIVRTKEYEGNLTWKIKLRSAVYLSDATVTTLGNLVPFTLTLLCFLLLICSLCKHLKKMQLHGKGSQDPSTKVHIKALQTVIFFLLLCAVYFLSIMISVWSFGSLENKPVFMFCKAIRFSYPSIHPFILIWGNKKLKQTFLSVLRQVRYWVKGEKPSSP
Sequence of hT2R61 (P59537 whole entry): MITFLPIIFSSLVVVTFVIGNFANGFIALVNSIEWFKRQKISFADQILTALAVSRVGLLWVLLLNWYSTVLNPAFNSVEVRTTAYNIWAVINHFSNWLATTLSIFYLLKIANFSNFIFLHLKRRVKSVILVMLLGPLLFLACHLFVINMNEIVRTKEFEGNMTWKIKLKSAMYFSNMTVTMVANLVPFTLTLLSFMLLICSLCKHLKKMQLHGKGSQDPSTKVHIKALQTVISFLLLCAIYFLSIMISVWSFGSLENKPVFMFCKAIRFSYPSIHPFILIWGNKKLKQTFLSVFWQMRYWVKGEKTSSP
Sequence of hT2R14 (Q9NYV8 whole entry): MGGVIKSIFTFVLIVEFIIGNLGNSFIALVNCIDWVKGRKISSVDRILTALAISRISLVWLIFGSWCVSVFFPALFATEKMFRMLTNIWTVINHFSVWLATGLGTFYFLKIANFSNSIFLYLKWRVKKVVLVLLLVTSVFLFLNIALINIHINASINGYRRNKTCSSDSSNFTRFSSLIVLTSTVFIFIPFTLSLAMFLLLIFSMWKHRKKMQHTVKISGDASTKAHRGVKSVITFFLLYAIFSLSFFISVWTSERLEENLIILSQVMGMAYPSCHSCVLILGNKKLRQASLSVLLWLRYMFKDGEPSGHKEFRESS
Sequence of hT2R13 (Q9NYV9 whole entry): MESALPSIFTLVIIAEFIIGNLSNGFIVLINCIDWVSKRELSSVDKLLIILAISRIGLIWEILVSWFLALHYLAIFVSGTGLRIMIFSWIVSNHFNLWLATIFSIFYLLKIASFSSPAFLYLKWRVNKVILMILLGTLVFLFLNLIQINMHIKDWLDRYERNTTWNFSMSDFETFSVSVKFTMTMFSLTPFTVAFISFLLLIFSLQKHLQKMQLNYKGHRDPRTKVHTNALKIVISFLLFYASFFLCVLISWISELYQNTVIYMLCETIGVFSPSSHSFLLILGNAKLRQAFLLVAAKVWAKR
Sequence of hT2R71 (P59536 whole entry): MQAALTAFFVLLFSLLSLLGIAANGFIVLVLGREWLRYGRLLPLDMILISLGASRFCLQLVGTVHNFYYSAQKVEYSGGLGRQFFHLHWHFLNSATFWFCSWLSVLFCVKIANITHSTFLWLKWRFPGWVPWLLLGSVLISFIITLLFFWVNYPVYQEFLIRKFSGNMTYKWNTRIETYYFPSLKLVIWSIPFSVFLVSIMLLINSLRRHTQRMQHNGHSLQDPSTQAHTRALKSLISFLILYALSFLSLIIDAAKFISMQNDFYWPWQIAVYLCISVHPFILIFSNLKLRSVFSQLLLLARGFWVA
Sequence of hT2R5 (Q9NYW4 whole entry): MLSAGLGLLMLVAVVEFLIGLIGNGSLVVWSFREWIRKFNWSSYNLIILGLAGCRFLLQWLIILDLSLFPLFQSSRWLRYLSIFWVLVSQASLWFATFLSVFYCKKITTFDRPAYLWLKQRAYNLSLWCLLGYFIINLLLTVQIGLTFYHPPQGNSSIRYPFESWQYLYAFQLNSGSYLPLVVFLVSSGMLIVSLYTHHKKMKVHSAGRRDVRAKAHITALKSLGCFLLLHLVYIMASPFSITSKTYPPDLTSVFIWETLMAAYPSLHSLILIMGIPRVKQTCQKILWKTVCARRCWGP
Sequence of hT2R10 (Q9NYW0 whole entry): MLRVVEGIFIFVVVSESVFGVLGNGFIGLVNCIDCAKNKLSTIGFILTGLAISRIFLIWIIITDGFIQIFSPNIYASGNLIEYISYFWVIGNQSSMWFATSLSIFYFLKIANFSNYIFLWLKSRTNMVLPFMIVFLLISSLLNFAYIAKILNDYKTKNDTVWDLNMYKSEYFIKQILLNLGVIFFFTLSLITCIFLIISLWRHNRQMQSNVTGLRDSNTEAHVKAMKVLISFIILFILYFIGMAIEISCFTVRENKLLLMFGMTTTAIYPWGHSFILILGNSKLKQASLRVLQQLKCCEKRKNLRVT
Sequence of hT2R4 (Q9NYW5 whole entry): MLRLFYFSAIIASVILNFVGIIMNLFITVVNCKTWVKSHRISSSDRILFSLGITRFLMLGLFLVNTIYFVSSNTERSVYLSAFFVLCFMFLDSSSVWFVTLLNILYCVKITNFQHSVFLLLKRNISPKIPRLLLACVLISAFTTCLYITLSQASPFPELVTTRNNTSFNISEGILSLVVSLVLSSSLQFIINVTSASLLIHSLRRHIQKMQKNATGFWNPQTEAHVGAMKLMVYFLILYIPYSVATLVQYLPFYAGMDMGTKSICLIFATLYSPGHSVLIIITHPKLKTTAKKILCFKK
Sequence of hT2R75 (P59540 whole entry): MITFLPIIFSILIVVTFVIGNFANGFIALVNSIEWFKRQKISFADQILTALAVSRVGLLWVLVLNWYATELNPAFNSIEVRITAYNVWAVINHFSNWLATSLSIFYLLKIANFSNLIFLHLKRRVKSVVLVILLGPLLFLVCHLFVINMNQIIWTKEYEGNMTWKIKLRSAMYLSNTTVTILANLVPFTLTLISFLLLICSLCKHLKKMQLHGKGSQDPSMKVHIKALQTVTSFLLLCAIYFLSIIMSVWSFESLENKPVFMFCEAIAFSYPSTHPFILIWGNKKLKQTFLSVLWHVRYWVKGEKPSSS
Sequence of hT2R51 (P59533 whole entry): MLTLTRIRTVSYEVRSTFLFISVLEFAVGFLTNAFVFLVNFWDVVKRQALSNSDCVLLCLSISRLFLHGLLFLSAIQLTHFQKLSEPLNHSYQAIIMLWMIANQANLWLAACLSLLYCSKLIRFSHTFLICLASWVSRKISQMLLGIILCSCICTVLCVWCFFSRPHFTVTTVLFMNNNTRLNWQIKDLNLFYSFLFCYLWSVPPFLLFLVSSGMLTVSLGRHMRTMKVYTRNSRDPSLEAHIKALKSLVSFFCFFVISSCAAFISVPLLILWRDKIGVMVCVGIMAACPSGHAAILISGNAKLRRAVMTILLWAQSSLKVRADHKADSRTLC
Sequence of hT2R7 (Q9NYW3 whole entry): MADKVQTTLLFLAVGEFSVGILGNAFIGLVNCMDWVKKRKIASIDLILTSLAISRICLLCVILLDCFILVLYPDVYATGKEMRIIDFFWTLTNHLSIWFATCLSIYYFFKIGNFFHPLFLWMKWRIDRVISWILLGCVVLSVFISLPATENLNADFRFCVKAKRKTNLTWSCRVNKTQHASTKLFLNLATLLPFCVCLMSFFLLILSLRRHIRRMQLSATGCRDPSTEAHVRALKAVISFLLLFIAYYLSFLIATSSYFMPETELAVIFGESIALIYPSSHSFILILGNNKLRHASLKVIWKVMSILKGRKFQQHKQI

Row | Structure (SMILES) | screening result against bitter receptor 63 (hT2R63) | inhibition at 25 µM (hT2R14) [%] | inhibition at 25 µM (hT2R64) [%] | inhibition at 25 µM (hT2R16) [%] | inhibition at 25 µM (hT2R61) [%] | screening result against bitter receptor 67 (hT2R67) | screening result against bitter receptor 65 (hT2R65) | inhibition at 25 µM (hT2R3) [%] | inhibition at 25 µM (hT2R13) [%] | inhibition at 25 µM (hT2R71) [%] | screening result against bitter receptor 55 (hT2R55) | screening result against bitter receptor 44 (hT2R44) | inhibition at 25 µM (hT2R4) [%] | inhibition at 25 µM (hT2R51) [%] | inhibition at 25 µM (hT2R7) [%] | inhibition at 25 µM (hT2R75) [%] | inhibition at 25 µM (hT2R10) [%] | screening result against bitter receptor 54 (hT2R54) | inhibition at 25 µM (hT2R5) [%]
1 | COc1ccc(CN(C2CCCc3ccccc32)S(=O)(=O)c2ccc(C(=O)O)cc2)cc1 (stereo not shown) [Example 5-96, 4-(N-(4-methoxybenzyl)-N-(1,2,3,4-tetrahydronaphthalen-1-yl)sulfamoyl)benzoic acid] | ++++ (80% or greater inhibition = ++++) | > 80 | 60 to 80 | 20 to 40 | > 80 | + (20% to 40% inhibition = +) | ++++ (80% or greater inhibition = ++++) | 20 to 40 | 20 to 40 | 40 to 60 | ++++ (80% or greater inhibition = ++++) | +++ (60% to 80% inhibition = +++) | 20 to 40 |  |  |  |  |  | 
2 | COc1ccc(CN(Cc2ccoc2)S(=O)(=O)c2ccc(C(=O)O)cc2)cc1 [Example 5-27, 4-(N-(furan-3-ylmethyl)-N-(4-methoxybenzyl)sulfamoyl)benzoic acid] | +++ (60% to 80% inhibition = +++) | > 80 | 60 to 80 | 20 to 40 | > 80 | ++ (40% to 60% inhibition = ++) | ++ (40% to 60% inhibition = ++) | 40 to 60 | 20 to 40 | 60 to 80 | ++++ (80% or greater inhibition = ++++) | +++ (60% to 80% inhibition = +++) |  | 40 to 60 | 20 to 40 | 20 to 40 | 60 to 80 | ++ (40% to 60% inhibition = ++) | 40 to 60
